Experiment [1] deals with Mycosphaerella graminicola; Anamorph: Zymoseptoria tritici. In words: Fungicidal activity: Leaf Blotch of Wheat (SEPTTR), wheat seedlings. The class given is in vivo. Conditions: wheat; for pest or weed control at 121.5 g/ha: Low Volume (121.5 g/H); for pest or weed control at 100 µg/mL: High Volume (100 ppm). As to the method: Example A: Evaluation of Fungicidal Activity: Leaf Blotch of Wheat (Mycosphaerella graminicola; Anamorph: Zymoseptoria tritici; Bayer Code […]) Technical grades of materials were dissolved in acetone, which were then mixed with nine volumes of water containing 110 ppm Triton X-100. The fungicide solutions were applied onto wheat seedlings using an automated booth sprayer to run-off. All sprayed plants were allowed to air dry prior to further handling. All fungicides were evaluated using the aforementioned method for their activity vs. all target diseases, unless stated otherwise. Wheat leaf blotch and brown rust activity were also evaluated using track spray applications, in which case the fungicides were formulated as EC formulations, containing 0.1% Trycol 5941 in the spray solutions. Wheat plants (variety Yuma) were grown from seed in a greenhouse in 50% mineral soil/50% soil-less Metro mix until the first leaf was fully emerged, with 7-10 seedlings per pot. These plants were inoculated with an aqueous spore suspension of Zymoseptoria tritici either prior to or after fungicide treatments. After inoculation the plants were kept in 100% relative humidity (one day in a dark dew chamber followed by two to three days in a lighted dew chamber at 20° C.) to permit spores to germinate and infect the leaf. The plants were then transferred to a greenhouse set at 20° C. for disease to develop. When disease symptoms were fully expressed on the 1st leaves of untreated plants, infection levels were assessed on a scale of 0 to 100 percent disease severity. Percent disease control was calculated using the ratio of disease severity on treated plants relative to untreated plants.

The subject of experiment [2] is Puccinia triticina. In words: Fungicidal activity: Wheat Brown Rust (PUCCRT), wheat seedlings. The format is in vivo. The note with it: for pest or weed control at 121.5 g/ha: Low Volume (121.5 g/H); for pest or weed control at 100 µg/mL: High Volume (100 ppm). As to the method:
Technical grades of materials were dissolved in acetone, which were then mixed with nine volumes of water containing 110 ppm Triton X-100. The fungicide solutions were applied onto wheat seedlings using an automated booth sprayer to run-off. All sprayed plants were allowed to air dry prior to further handling. All fungicides were evaluated using the aforementioned method for their activity vs. all target diseases, unless stated otherwise. Wheat leaf blotch and brown rust activity were also evaluated using track spray applications, in which case the fungicides were formulated as EC formulations, containing 0.1% Trycol 5941 in the spray solutions. Wheat plants (variety Yuma) were grown from seed in a greenhouse in 50% mineral soil/50% soil-less Metro mix until the first leaf was fully emerged, with 7-10 seedlings per pot. These plants were inoculated with an aqueous spore suspension of Zymoseptoria tritici either prior to or after fungicide treatments. After inoculation the plants were kept in 100% relative humidity (one day in a dark dew chamber followed by two to three days in a lighted dew chamber at 20° C.) to permit spores to germinate and infect the leaf. The plants were then transferred to a greenhouse set at 20° C. for disease to develop. When disease symptoms were fully expressed on the 1st leaves of untreated plants, infection levels were assessed on a scale of 0 to 100 percent disease severity. Percent disease control was calculated using the ratio of disease severity on treated plants relative to untreated plants. Example B: Evaluation of Fungicidal Activity: Wheat Brown Rust (Puccinia triticina; Synonym: Puccinia recondita f. sp. tritici; Bayer Code PUCCRT) Wheat plants (variety Yuma) were grown from seed in a greenhouse in 50% mineral soil/50% soil-less Metro mix until the first leaf was fully emerged, with 7-10 seedlings per pot. These plants were inoculated with an aqueous spore suspension of Puccinia triticina either prior to or after fungicide treatments. After inoculation the plants were kept in a dark dew room at 22° C. with 100% relative humidity overnight to permit spores to germinate and infect the leaf. The plants were then transferred to a greenhouse set at 24° C. for disease to develop. Fungicide formulation, application and disease assessment followed the procedures as described in the Example A.

Where [3] appears, read: 24 h, 1 Day Protectant, read-out: SEPTTR disease control rating, 1DP.
Where [4] appears, read: 72 h, 3 Day Curative, read-out: SEPTTR disease control rating, 3DC.
The mark [5] stands for this setting: 24 h, 1 Day Protectant, read-out: PUCCRT disease control rating, 1DP.
Where [6] appears, read: 72 h, 3 Day Curative, read-out: PUCCRT disease control rating, 3DC.

Read-outs that look alike come from different tables or passages of the source.

`COc1ccnc(C(=O)N[C@H]2CCO[C@H](CC3CCCC3)[C@@H](Oc3ccccc3)[C@H](C)OC2=O)c1OCOC(C)=O` [Compound 85]: the pest or weed control at 121.5 g/ha in experiment [1] (setting [3]), in experiment [1] (setting [4]), in experiment [2] (setting [5]) and in experiment [2] (setting [6]) was more than 70% throughout.

Consider `CCCO[C@H]1[C@H](C)OC(=O)[C@@H](NC(=O)c2nccc(OC)c2OC(C)=O)CCO[C@@H]1Cc1ccc(F)cc1` [Compound 81, 2-(((2R,3S,4S,7S)-2-(4-fluorobenzyl)-4-methyl-6-oxo-3-propoxy-1,5-dioxonan-7-yl)carbamoyl)-4-methoxypyridin-3-yl acetate], for which the pest or weed control at 121.5 g/ha in experiment [1] (setting [3]), in experiment [1] (setting [4]), in experiment [2] (setting [5]) and in experiment [2] (setting [6]) was less than 70% in each case.

In the case of `CC[C@H]1OCC[C@H](NC(=O)c2nccc(OC)c2OC(C)=O)C(=O)O[C@@H](C)[C@@H]1Oc1ccccc1` [Compound 94], the pest or weed control at 121.5 g/ha in experiment [1] (setting [3]), in experiment [1] (setting [4]), in experiment [2] (setting [5]) and in experiment [2] (setting [6]) was more than 70% throughout.

As to `COc1ccc(C[C@H]2OCC[C@H](NC(=O)c3nccc(OC)c3OCOC(C)=O)C(=O)O[C@@H](C)[C@@H]2Oc2ccccc2)cc1` [Compound 87], the pest or weed control at 121.5 g/ha in experiment [1] (setting [3]) was more than 70%; in experiment [1] (setting [4]) it was less than 70%; in experiment [2] (setting [5]) it was more than 70%; in experiment [2] (setting [6]), more than 70%.

Turning to `COc1ccnc(C(=O)N[C@H]2CCOC[C@@H](OCc3ccccc3)[C@H](C)OC2=O)c1O` [Compound 66], the pest or weed control at 100 µg/mL was less than 70% in experiment [1] (setting [3]), less than 70% in experiment [1] (setting [4]), more than 70% in experiment [2] (setting [5]) and more than 70% in experiment [2] (setting [6]).

As to `COc1ccnc(C(=O)N[C@H]2CCO[C@H](Cc3ccc(F)cc3)[C@@H](OC(=O)C(C)C)[C@H](C)OC2=O)c1O` [Compound 54], the pest or weed control at 100 µg/mL in experiment [1] (setting [3]), in experiment [1] (setting [4]), in experiment [2] (setting [5]) and in experiment [2] (setting [6]) was more than 70% in each case.

Consider `COc1ccnc(C(=O)N[C@H]2CCOC[C@@H](OC(=O)C(C)C)[C@H](C)OC2=O)c1O` [Compound 70], for which the pest or weed control at 100 µg/mL in experiment [1] (setting [3]), in experiment [1] (setting [4]), in experiment [2] (setting [5]) and in experiment [2] (setting [6]) was less than 70% throughout.

`C=C(C)CO[C@H]1[C@H](C)OC(=O)[C@@H](NC(=O)c2nccc(OC)c2OC(C)=O)CCO[C@@H]1CC` [Compound 92]: the pest or weed control at 121.5 g/ha in experiment [1] (setting [3]) was less than 70%; in experiment [1] (setting [4]), less than 70%; in experiment [2] (setting [5]) it was more than 70%; in experiment [2] (setting [6]) it was more than 70%.

For the compound `C=CCO[C@H]1[C@H](C)OC(=O)[C@@H](NC(=O)c2nccc(OC)c2O)CCO[C@@H]1Cc1ccc(F)cc1` [Compound 55, N-((2R,3S,4S,7S)-3-(allyloxy)-2-(4-fluorobenzyl)-4-methyl-6-oxo-1,5-dioxonan-7-yl)-3-hydroxy-4-methoxypicolinamide], the pest or weed control at 100 µg/mL in experiment [1] (setting [3]), in experiment [1] (setting [4]), in experiment [2] (setting [5]) and in experiment [2] (setting [6]) was more than 70% each time.

On to `CCCO[C@H]1[C@H](C)OC(=O)[C@@H](NC(=O)c2nccc(OC)c2OCOC(C)=O)CCO[C@@H]1Cc1ccc(F)cc1` [Compound 79, ((2-(((2R,3S,4S,7S)-2-(4-fluorobenzyl)-4-methyl-6-oxo-3-propoxy-1,5-dioxonan-7-yl)carbamoyl)-4-methoxypyridin-3-yl)oxy)methyl acetate], for which the pest or weed control at 121.5 g/ha in experiment [1] (setting [3]), in experiment [1] (setting [4]), in experiment [2] (setting [5]) and in experiment [2] (setting [6]) was more than 70% in each case.

For the compound `COc1ccnc(C(=O)N[C@H]2CCO[C@H](CC3CCCC3)[C@@H](Oc3ccccc3)[C@H](C)OC2=O)c1O` [Compound 58], the pest or weed control at 100 µg/mL in experiment [1] (setting [3]), in experiment [1] (setting [4]), in experiment [2] (setting [5]) and in experiment [2] (setting [6]) was more than 70% in each case.

In the case of `COc1ccnc(C(=O)N[C@H]2CCOC[C@@H](OCC(C)C)[C@H](C)OC2=O)c1O` [Compound 67], the pest or weed control at 100 µg/mL in experiment [1] (setting [3]), in experiment [1] (setting [4]), in experiment [2] (setting [5]) and in experiment [2] (setting [6]) was more than 70% each time.

For the compound `COc1ccnc(C(=O)N[C@H]2CCO[C@H](Cc3ccc(F)cc3)[C@@H](Oc3ccccc3)[C@H](C)OC2=O)c1OC(C)=O` [Compound 75], the pest or weed control at 121.5 g/ha in experiment [1] (setting [3]) was more than 70%; in experiment [1] (setting [4]) it was less than 70%; in experiment [2] (setting [5]) it was more than 70%; in experiment [2] (setting [6]), more than 70%.

Turning to `CC[C@H]1OCC[C@H](NC(=O)c2nccc(OC)c2OC(C)=O)C(=O)O[C@@H](C)[C@@H]1OC(=O)C(C)C` [Compound 95], the pest or weed control at 121.5 g/ha in experiment [1] (setting [3]) was less than 70%; in experiment [1] (setting [4]) it was more than 70%; in experiment [2] (setting [5]) it was more than 70%; in experiment [2] (setting [6]), more than 70%.

With `COc1ccnc(C(=O)N[C@H]2CCOC[C@@H](OCc3ccccc3)[C@H](C)OC2=O)c1OCOC(C)=O` [Compound 96], the pest or weed control at 121.5 g/ha is less than 70% in experiment [1] (setting [3]), more than 70% in experiment [1] (setting [4]), more than 70% in experiment [2] (setting [5]) and more than 70% in experiment [2] (setting [6]).

`CC[C@H]1OCC[C@H](NC(=O)c2nccc(OC)c2OC(C)=O)C(=O)O[C@@H](C)[C@@H]1OCC(C)C` [Compound 93]: the pest or weed control at 121.5 g/ha in experiment [1] (setting [3]), in experiment [1] (setting [4]), in experiment [2] (setting [5]) and in experiment [2] (setting [6]) was more than 70% throughout.

On to `COc1ccnc(C(=O)N[C@H]2CCOC[C@@H](OC(=O)C(C)C)[C@H](C)OC2=O)c1OCOC(C)=O` [Compound 98], for which the pest or weed control at 121.5 g/ha in experiment [1] (setting [3]), in experiment [1] (setting [4]), in experiment [2] (setting [5]) and in experiment [2] (setting [6]) was less than 70% in each case.

For the compound `CC[C@H]1OCC[C@H](NC(=O)c2nccc(OC)c2OCOC(C)=O)C(=O)O[C@@H](C)[C@@H]1OCC(C)C` [Compound 89], the pest or weed control at 121.5 g/ha in experiment [1] (setting [3]), in experiment [1] (setting [4]), in experiment [2] (setting [5]) and in experiment [2] (setting [6]) was more than 70% each time.

Consider `CC[C@H]1OCC[C@H](NC(=O)c2nccc(OC)c2O)C(=O)O[C@@H](C)[C@@H]1OC(=O)C(C)C` [Compound 65], for which the pest or weed control at 100 µg/mL in experiment [1] (setting [3]) was less than 70%; in experiment [1] (setting [4]), less than 70%; in experiment [2] (setting [5]) it was more than 70%; in experiment [2] (setting [6]), more than 70%.

For the compound `C=CCO[C@H]1[C@H](C)OC(=O)[C@@H](NC(=O)c2nccc(OC)c2OC(C)=O)CCO[C@@H]1Cc1ccc(F)cc1` [Compound 80], the pest or weed control at 121.5 g/ha in experiment [1] (setting [3]), in experiment [1] (setting [4]), in experiment [2] (setting [5]) and in experiment [2] (setting [6]) was less than 70% in each case.
